Data published in paper PMC4229146, “An Odorant-Binding Protein Is Abundantly Expressed in the Nose and in the Seminal Fluid of the Rabbit” (PLoS ONE, 2014).

Experiments:
rabOBP3 [1] = target: T1, rabOBP3; assay: competitive displacement of fluorescent probe 1-NPN; assay type: binding, Oryctolagus cuniculus
T1 construct: native mature protein (161 amino acids) purified from rabbit seminal fluid, delipidated with dichloromethane

rabOBP3 [2] = target: T1, rabOBP3; assay: fluorescent probe titration (direct fluorescence binding); design: species or system Oryctolagus cuniculus

Row | Kd (rabOBP3 [1]) [µM] | Compound | Kd (rabOBP3 [2]) [µM]
1 | 7.8 | CCCCCC/C=C/C=O [2-nonenal] | 
2 |  | c1ccc(Nc2cccc3ccccc23)cc1 [N-phenyl-1-naphthylamine] | 3.8
3 | 11.2 | CC(C)=CCC/C(C)=C/CO [geraniol] | 

Row | Compound | Kd (rabOBP3 [1]) [µM] | Kd (rabOBP3 [2]) [µM]
4 | O=c1c(O)c(-c2ccc(O)c(O)c2)oc2cc(O)cc(O)c12 [quercetin] | 2.2 | 
